Measured values taken from ChEMBL document CHEMBL1157124, “Synthesis and anticancer evaluation of alpha-lipoic acid derivatives” (Bioorg Med Chem Lett, 2010).

Legend:
Format in all cases: functional
[1] = system: KB; assay: Cytotoxicity against human KB cells assessed as growth inhibition at 1 ug/ml after 24 hrs by MTT assay; details: read-out: GI
[2] = system: NCI-H460; assay: Cytotoxicity against human NCI-H460 cells assessed as growth inhibition at 10 ug/ml after 24 hrs by MTT assay; details: NCI-H460, 24 h, read-out: GI
[3] = system: NCI-H460; assay: Cytotoxicity against human NCI-H460 cells assessed as growth inhibition at 1 ug/ml after 24 hrs by MTT assay; details: NCI-H460, 24 h, read-out: GI
[4] = system: Bel-7402; assay: Cytotoxicity against human Bel7402 cells assessed as growth inhibition at 0.1 ug/ml after 24 hrs by MTT assay; details: Bel-7402, 24 h, read-out: GI
[5] = Cytotoxicity against human HO8910 cells assessed as growth inhibition at 0.1 ug/ml after 24 hrs by MTT assay; details: HO-8910, 24 h, read-out: GI
[6] = system: Bel-7402; assay: Cytotoxicity against human Bel7402 cells assessed as growth inhibition at 10 ug/ml after 24 hrs by MTT assay; details: Bel-7402, 24 h, read-out: GI
[7] = system: KB; assay: Cytotoxicity against human KB cells assessed as growth inhibition at 10 ug/ml after 24 hrs by MTT assay; details: read-out: GI
[8] = system: Bel-7402; assay: Cytotoxicity against human Bel7402 cells assessed as growth inhibition at 1 ug/ml after 24 hrs by MTT assay; details: Bel-7402, 24 h, read-out: GI
[9] = system: NCI-H460; assay: Cytotoxicity against human NCI-H460 cells assessed as growth inhibition at 0.1 ug/ml after 24 hrs by MTT assay; details: NCI-H460, 24 h, read-out: GI
[10] = system: KB; assay: Cytotoxicity against human KB cells assessed as growth inhibition at 0.1 ug/ml after 24 hrs by MTT assay; details: read-out: GI
[11] = system: KB; assay: Cytotoxicity against human KB cells assessed as growth inhibition at 100 ug/ml after 24 hrs by MTT assay; details: read-out: GI
[12] = system: NCI-H460; assay: Cytotoxicity against human NCI-H460 cells assessed as growth inhibition at 100 ug/ml after 24 hrs by MTT assay; details: NCI-H460, 24 h, read-out: GI
[13] = Cytotoxicity against human HO8910 cells assessed as growth inhibition at 100 ug/ml after 24 hrs by MTT assay; details: HO-8910, 24 h, read-out: GI
[14] = system: Bel-7402; assay: Cytotoxicity against human Bel7402 cells assessed as growth inhibition at 100 ug/ml after 24 hrs by MTT assay; details: Bel-7402, 24 h, read-out: GI
[15] = Cytotoxicity against human HO8910 cells assessed as growth inhibition at 10 ug/ml after 24 hrs by MTT assay; details: HO-8910, 24 h, read-out: GI
[16] = Cytotoxicity against human HO8910 cells assessed as growth inhibition at 1 ug/ml after 24 hrs by MTT assay; details: HO-8910, 24 h, read-out: GI

Structure (SMILES)	inhibition of growth at 1 µg/mL [1] [%]	inhibition of growth at 10 µg/mL [2] [%]	inhibition of growth at 1 µg/mL [3] [%]	inhibition of growth at 0.1 µg/mL [4] [%]	inhibition of growth at 0.1 µg/mL [5] [%]	inhibition of growth at 10 µg/mL [6] [%]	inhibition of growth at 10 µg/mL [7] [%]	inhibition of growth at 1 µg/mL [8] [%]	inhibition of growth at 0.1 µg/mL [9] [%]	inhibition of growth at 0.1 µg/mL [10] [%]	inhibition of growth at 100 µg/mL [11] [%]	inhibition of growth at 100 µg/mL [12] [%]	inhibition of growth at 100 µg/mL [13] [%]	inhibition of growth at 100 µg/mL [14] [%]	inhibition of growth at 10 µg/mL [15] [%]	inhibition of growth at 1 µg/mL [16] [%]
CC(=O)SCCC(CCCCC(=O)Nc1ccccc1Cl)SC(C)=O (configuration not stated)	8.21	11.4	13.2	6.61	2.48	3.09	6.55	5.01	16.6	7.05	6.93	15.2	–	–	–	–
CC(=O)SCCC(CCCCC(=O)Nc1cccc(Cl)c1)SC(C)=O (configuration not stated)	0.04	2.09	0.31	3.72	0.27	–	–	0.56	–	5.72	48.8	42.8	38.1	20.8	–	–
O=C(CCCCC(S)CCS)Nc1cccc2ccccc12 (configuration not stated)	–	–	–	–	0.76	–	–	0.69	–	–	–	2.18	–	–	–	–
O=C(CCCCC(S)CCS)Nc1ccccn1 (configuration not stated)	–	–	2.31	–	–	–	0.28	–	5.01	–	18.5	11.7	14.2	3.62	–	–
O=C(CCCCC1CCSS1)Nc1ccccn1 (configuration not stated)	–	–	0.81	0.89	1.14	5.77	–	–	2.61	–	25.1	39.3	51.9	37.6	–	–
O=C(CCCCC(S)CCS)Nc1ccc(Br)cn1 (configuration not stated)	2.51	39.2	10.7	–	–	23.2	34.1	4.71	6.4	–	59.2	55.9	56.8	41.1	29.4	2.51
Cc1cccc(NC(=O)CCCCC(S)CCS)c1 (configuration not stated)	3.31	7.67	9.43	10.1	4.92	14.1	7.23	11.1	9.34	5.75	17.5	23.1	–	7.08	–	2.76
O=C(CCCCC(S)CCS)Nc1ccc(Cl)cc1 (configuration not stated)	13.3	21.9	6.76	1.06	1.04	1.16	18.2	0.27	–	9.11	44.1	40.9	21.3	25.5	–	2.81
O=C(CCCCC1CCSS1)NO (configuration not stated)	2.57	–	0.64	10.4	–	11.8	0.89	7.39	3.9	7.92	12.4	–	–	12.5	–	–
O=C(CCCCC(S)CCS)Nc1ccc([N+](=O)[O-])cc1 (configuration not stated)	0.93	13.4	4.64	1.88	–	14.4	13.7	1.73	5.69	–	41.1	39.1	51.2	33.4	8.96	0.76
